Measurements as given in publication PMC5362750, “Discovery of Potent, Selective, and Orally Bioavailable Small-Molecule Modulators of the Mediator Complex-Associated Kinases CDK8 and CDK19” (Journal of Medicinal Chemistry, 2016).
Converted amounts (≈) assume the structure as drawn.

Legend:
CDK7/CYCLINH/MAT1 = CDK7/CYCLINH/MAT1 (Homo sapiens, UniProt P50613); conditions: 1 µM, ATP at Km
[1] = 120 min, pH 7.4
MRCKBETA = target: T1, MRCKBETA (Homo sapiens, UniProt Q9Y5S2); test: Kinase panel (Millipore); assay type: biochemical; conditions: 1 µM, ATP at Km
T1 construct: purchased Millipore (KinaseProfiler) kinase panel
T1 sequence (Q9Y5S2 whole entry): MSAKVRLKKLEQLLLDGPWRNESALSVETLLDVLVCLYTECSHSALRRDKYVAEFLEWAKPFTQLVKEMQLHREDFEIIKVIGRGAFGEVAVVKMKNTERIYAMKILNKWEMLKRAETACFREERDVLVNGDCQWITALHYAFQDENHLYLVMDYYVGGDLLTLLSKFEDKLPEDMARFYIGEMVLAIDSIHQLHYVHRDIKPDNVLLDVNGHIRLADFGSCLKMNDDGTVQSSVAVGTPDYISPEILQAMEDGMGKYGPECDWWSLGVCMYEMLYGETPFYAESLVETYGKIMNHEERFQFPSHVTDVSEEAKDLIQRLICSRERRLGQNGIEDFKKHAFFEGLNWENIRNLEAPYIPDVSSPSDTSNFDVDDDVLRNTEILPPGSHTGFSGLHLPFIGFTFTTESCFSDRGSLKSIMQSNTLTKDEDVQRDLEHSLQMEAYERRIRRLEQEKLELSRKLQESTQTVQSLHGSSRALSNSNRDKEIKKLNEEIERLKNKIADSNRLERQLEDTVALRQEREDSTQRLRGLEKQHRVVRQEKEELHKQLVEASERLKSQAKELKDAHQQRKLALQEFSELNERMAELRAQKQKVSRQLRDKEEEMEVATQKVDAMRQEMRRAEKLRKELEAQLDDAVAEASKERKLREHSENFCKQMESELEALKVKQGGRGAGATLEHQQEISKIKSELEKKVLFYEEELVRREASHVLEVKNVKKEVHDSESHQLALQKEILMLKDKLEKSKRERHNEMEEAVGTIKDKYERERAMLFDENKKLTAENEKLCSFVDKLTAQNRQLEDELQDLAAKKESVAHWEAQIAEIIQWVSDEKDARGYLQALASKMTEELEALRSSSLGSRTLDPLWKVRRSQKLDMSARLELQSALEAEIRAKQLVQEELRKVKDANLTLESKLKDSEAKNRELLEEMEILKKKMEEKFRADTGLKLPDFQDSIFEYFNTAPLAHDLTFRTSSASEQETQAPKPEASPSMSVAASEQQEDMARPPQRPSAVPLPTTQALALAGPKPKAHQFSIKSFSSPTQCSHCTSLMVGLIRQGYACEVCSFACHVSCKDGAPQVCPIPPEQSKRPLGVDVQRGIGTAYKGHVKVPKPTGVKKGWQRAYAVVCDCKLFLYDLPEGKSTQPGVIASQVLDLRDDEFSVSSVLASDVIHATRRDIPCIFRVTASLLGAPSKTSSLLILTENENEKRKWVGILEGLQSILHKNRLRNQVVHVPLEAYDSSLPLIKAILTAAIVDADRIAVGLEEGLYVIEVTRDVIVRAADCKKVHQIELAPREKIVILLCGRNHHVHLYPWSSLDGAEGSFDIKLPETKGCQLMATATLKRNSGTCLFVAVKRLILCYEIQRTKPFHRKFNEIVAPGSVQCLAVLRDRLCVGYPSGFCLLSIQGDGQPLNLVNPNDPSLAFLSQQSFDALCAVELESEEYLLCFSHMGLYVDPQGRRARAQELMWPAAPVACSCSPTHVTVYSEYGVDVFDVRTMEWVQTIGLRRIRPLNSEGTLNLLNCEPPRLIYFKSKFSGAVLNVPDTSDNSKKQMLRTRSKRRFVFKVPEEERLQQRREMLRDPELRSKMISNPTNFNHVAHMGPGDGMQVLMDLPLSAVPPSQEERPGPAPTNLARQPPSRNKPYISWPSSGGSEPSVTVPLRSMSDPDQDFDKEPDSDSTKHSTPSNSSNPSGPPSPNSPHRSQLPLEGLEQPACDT

WNK2 = target: T2, WNK2 (Homo sapiens, UniProt Q9Y3S1); test: Kinase panel (Millipore); assay type: biochemical; conditions: 1 µM, ATP at Km
T2 construct: purchased Millipore (KinaseProfiler) kinase panel

PAK2 = target: T3, PAK2 (Homo sapiens, UniProt Q13177); test: Kinase panel (Millipore); assay type: biochemical; conditions: 1 µM, ATP at Km
T3 construct: purchased Millipore (KinaseProfiler) kinase panel
T3 sequence (Q13177 whole entry): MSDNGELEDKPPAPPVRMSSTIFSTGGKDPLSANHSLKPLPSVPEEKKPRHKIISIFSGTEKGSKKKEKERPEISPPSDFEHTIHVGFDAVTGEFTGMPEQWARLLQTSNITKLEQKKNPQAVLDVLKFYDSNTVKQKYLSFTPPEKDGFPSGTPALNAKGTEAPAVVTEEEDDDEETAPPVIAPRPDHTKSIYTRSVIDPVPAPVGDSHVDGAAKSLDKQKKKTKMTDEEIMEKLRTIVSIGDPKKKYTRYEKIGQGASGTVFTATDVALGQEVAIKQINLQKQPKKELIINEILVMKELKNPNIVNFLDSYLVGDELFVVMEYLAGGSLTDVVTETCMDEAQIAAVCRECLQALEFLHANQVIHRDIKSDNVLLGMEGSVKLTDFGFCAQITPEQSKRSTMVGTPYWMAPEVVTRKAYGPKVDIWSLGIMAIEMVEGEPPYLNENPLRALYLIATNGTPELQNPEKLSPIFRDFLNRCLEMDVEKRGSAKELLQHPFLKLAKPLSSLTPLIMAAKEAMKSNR

ABL = ABL (Homo sapiens, UniProt P00519); test: Kinase panel (Millipore); assay type: biochemical; conditions: 1 µM, ATP at Km
ALK = target: T4, ALK (Homo sapiens, UniProt Q9UM73); test: Kinase panel (Millipore); assay type: biochemical; conditions: 1 µM, ATP at Km
T4 construct: purchased Millipore (KinaseProfiler) kinase panel

P70S6K = target: T5, P70S6K (Homo sapiens, UniProt P23443); test: Kinase panel (Millipore); assay type: biochemical; conditions: 1 µM, ATP at Km
T5 construct: purchased Millipore (KinaseProfiler) kinase panel
T5 sequence (P23443 whole entry): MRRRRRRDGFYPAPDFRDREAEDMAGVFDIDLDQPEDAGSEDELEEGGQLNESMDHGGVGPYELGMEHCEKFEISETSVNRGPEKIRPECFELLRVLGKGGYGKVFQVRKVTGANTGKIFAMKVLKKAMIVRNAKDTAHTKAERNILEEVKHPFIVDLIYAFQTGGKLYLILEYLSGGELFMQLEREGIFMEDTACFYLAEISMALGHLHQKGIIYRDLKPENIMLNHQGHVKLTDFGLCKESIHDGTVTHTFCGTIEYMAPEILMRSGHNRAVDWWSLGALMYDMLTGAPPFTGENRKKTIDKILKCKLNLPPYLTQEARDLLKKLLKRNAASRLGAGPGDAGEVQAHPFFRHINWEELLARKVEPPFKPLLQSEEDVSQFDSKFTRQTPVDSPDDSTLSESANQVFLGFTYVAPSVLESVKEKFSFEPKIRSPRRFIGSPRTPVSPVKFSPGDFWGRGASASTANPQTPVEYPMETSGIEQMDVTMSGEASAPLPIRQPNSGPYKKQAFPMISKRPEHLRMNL

cMET (D1246H) = cMET (D1246H) (Homo sapiens, UniProt P08581, D1228H); conditions: 1 µM, ATP at Km
IRAK1 = IRAK1 (Homo sapiens, UniProt P51617); test: Kinase panel (Millipore); assay type: biochemical; conditions: 1 µM, ATP at Km
BLK = BLK (Homo sapiens, UniProt P51451); test: Kinase panel (Millipore); assay type: biochemical; conditions: 1 µM, ATP at Km
Chain of BLK (P51451 whole entry): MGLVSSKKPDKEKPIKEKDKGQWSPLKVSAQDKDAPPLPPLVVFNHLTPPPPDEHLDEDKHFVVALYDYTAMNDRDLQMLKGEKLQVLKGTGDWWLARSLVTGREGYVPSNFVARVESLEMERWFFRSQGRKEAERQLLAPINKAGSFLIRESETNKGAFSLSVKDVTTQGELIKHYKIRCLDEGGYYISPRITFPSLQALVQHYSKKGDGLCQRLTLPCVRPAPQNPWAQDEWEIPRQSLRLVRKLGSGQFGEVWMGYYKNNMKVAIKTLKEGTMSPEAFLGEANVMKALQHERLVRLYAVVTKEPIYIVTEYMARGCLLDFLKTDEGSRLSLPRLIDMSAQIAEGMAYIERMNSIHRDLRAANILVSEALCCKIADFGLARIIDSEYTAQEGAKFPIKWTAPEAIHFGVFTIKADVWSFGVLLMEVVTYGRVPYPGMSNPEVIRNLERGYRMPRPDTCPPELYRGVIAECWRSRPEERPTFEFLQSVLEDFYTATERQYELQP

CCR2 (h) = target: T6, CCR2 (h) (Homo sapiens, UniProt P41597); test: CEREP binding assay; conditions: agonist radioligand, read-out: % Inhibition of Control Specific Binding
T6 construct: purchased Millipore (KinaseProfiler) kinase panel

ABL(Y253F) = ABL(Y253F) (Homo sapiens, UniProt P00519, Y253F); conditions: 1 µM, ATP at Km
CAMKIIGAMMA = CAMKIIGAMMA (Homo sapiens, UniProt Q13555); test: Kinase panel (Millipore); assay type: biochemical; conditions: 1 µM, ATP at Km
sst4 (h) = sst4 (h) (Homo sapiens, UniProt P31391); test: CEREP binding assay; conditions: agonist radioligand, read-out: % Inhibition of Control Specific Binding
JNK3 = JNK3 (Homo sapiens, UniProt P53779); test: Kinase panel (Millipore); assay type: biochemical; conditions: 1 µM, ATP at Km
Chain of JNK3 (P53779 whole entry): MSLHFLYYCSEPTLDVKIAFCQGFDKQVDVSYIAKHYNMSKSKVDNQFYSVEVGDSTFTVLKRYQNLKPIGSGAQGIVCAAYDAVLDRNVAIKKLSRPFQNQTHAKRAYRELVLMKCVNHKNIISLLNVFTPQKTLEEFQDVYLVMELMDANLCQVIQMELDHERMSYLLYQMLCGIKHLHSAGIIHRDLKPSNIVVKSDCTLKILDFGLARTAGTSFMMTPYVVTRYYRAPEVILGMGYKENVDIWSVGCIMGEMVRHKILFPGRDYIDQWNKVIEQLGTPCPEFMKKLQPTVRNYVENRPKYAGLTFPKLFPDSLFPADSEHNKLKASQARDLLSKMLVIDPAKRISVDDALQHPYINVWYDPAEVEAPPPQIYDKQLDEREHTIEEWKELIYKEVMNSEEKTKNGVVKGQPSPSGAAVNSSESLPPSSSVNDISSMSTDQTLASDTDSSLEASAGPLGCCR

GR (h) = target: T7, GR (h) (Homo sapiens, UniProt P04150); test: CEREP binding assay; conditions: agonist radioligand, read-out: % Inhibition of Control Specific Binding
T7 construct: CEREP

In vivo mouse PK = conditions: female, NMRI, plasma, iv, 0.2 mg/kg
GSK3ALPHA = GSK3ALPHA (Homo sapiens, UniProt P49840); test: Kinase panel (Millipore); assay type: biochemical; conditions: 1 µM, ATP at Km
ARK5 = target: T8, ARK5 (Homo sapiens, UniProt O60285); test: Kinase panel (Millipore); assay type: biochemical; conditions: 1 µM, ATP at Km
T8 construct: purchased Millipore (KinaseProfiler) kinase panel
T8 sequence (O60285 whole entry): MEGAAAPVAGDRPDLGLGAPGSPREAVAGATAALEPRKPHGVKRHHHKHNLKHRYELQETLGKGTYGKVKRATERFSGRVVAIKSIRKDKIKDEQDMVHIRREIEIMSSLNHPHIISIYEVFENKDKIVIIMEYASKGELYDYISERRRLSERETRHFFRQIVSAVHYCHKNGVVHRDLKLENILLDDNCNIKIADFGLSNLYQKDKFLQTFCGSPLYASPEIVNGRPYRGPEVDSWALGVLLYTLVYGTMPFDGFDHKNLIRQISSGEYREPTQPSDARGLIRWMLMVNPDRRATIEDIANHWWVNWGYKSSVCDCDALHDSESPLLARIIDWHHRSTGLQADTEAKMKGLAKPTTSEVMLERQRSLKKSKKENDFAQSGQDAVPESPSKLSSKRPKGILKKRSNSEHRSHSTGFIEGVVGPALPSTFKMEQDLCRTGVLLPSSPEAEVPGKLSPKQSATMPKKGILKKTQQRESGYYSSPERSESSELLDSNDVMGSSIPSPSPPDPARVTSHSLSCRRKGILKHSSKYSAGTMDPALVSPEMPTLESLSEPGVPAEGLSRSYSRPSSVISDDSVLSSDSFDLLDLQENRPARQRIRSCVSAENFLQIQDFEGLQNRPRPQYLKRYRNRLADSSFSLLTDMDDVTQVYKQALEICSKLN

PASK = target: T9, PASK (Homo sapiens, UniProt Q96RG2); test: Kinase panel (Millipore); assay type: biochemical; conditions: 1 µM, ATP at Km
T9 construct: purchased Millipore (KinaseProfiler) kinase panel

NK1 (h) = NK1 (h) (Homo sapiens, UniProt P25103); test: CEREP binding assay; conditions: agonist radioligand, read-out: % Inhibition of Control Specific Binding
CAMKI = CAMKI (Homo sapiens, UniProt Q14012); test: Kinase panel (Millipore); assay type: biochemical; conditions: 1 µM, ATP at Km
CHK2 = target: T10, CHK2 (Homo sapiens, UniProt O96017); test: Kinase panel (Millipore); assay type: biochemical; conditions: 1 µM, ATP at Km
T10 construct: purchased Millipore (KinaseProfiler) kinase panel

JAK2 = target: T11, JAK2 (Homo sapiens, UniProt O60674); test: Kinase panel (Millipore); assay type: biochemical; conditions: 1 µM, ATP at Km
T11 construct: purchased Millipore (KinaseProfiler) kinase panel

FMS = target: T12, FMS (Homo sapiens, UniProt P07333); test: Kinase panel (Millipore); assay type: biochemical; conditions: 1 µM, ATP at Km
T12 construct: purchased Millipore (KinaseProfiler) kinase panel

TAO1 = target: T13, TAO1 (Homo sapiens, UniProt Q7L7X3); test: Kinase panel (Millipore); assay type: biochemical; conditions: 1 µM, ATP at Km
T13 construct: purchased Millipore (KinaseProfiler) kinase panel

RSE = target: T14, RSE (Homo sapiens, UniProt Q06418); test: Kinase panel (Millipore); assay type: biochemical; conditions: 1 µM, ATP at Km
T14 construct: purchased Millipore (KinaseProfiler) kinase panel

SGK2 = target: T15, SGK2 (Homo sapiens, UniProt Q9HBY8); test: Kinase panel (Millipore); assay type: biochemical; conditions: 1 µM, ATP at Km
T15 construct: purchased Millipore (KinaseProfiler) kinase panel

FES = FES (Homo sapiens, UniProt P07332); test: Kinase panel (Millipore); assay type: biochemical; conditions: 1 µM, ATP at Km
SAPK3 = SAPK3 (Homo sapiens, UniProt P53778); test: Kinase panel (Millipore); assay type: biochemical; conditions: 1 µM, ATP at Km
ABL (M351T) = ABL (M351T) (Homo sapiens, UniProt P00519, M351T); conditions: 1 µM, ATP at Km
IKKALPHA = target: T16, IKKALPHA (Homo sapiens, UniProt O15111); test: Kinase panel (Millipore); assay type: biochemical; conditions: 1 µM, ATP at Km
T16 construct: purchased Millipore (KinaseProfiler) kinase panel

NMDA = conditions: 10 µM, antagonist radioligand
PRKX = target: T17, PRKX (Homo sapiens, UniProt P51817); test: Kinase panel (Millipore); assay type: biochemical; conditions: 1 µM, ATP at Km
T17 construct: purchased Millipore (KinaseProfiler) kinase panel

CAMKIIBETA = CAMKIIBETA (Homo sapiens, UniProt Q13554); test: Kinase panel (Millipore); assay type: biochemical; conditions: 1 µM, ATP at Km
ULK3 = target: T18, ULK3 (Homo sapiens, UniProt Q6PHR2); test: Kinase panel (Millipore); assay type: biochemical; conditions: 1 µM, ATP at Km
T18 construct: purchased Millipore (KinaseProfiler) kinase panel

CAMKIDELTA = CAMKIDELTA (Homo sapiens, UniProt Q8IU85); test: Kinase panel (Millipore); assay type: biochemical; conditions: 1 µM, ATP at Km
CAMKIV = CAMKIV (Homo sapiens, UniProt Q16566); test: Kinase panel (Millipore); assay type: biochemical; conditions: 1 µM, ATP at Km
MST1 = MST1 (Homo sapiens, UniProt Q13043); test: Kinase panel (Millipore); assay type: biochemical; conditions: 1 µM, ATP at Km
IR = target: T19, IR (Homo sapiens, UniProt P06213); test: Kinase panel (Millipore); assay type: biochemical; conditions: 1 µM, ATP at Km
T19 construct: purchased Millipore (KinaseProfiler) kinase panel

[2] = tested on: glycine (strychnine-insensitive); conditions: 10 µM, antagonist radioligand
MAO-A = target: T20, MAO-A (Rattus norvegicus, UniProt P21396); test: CEREP binding assay; conditions: antagonist radioligand, read-out: % Inhibition of Control Specific Binding
T20 construct: purchased Millipore (KinaseProfiler) kinase panel
T20 sequence (P21396 whole entry): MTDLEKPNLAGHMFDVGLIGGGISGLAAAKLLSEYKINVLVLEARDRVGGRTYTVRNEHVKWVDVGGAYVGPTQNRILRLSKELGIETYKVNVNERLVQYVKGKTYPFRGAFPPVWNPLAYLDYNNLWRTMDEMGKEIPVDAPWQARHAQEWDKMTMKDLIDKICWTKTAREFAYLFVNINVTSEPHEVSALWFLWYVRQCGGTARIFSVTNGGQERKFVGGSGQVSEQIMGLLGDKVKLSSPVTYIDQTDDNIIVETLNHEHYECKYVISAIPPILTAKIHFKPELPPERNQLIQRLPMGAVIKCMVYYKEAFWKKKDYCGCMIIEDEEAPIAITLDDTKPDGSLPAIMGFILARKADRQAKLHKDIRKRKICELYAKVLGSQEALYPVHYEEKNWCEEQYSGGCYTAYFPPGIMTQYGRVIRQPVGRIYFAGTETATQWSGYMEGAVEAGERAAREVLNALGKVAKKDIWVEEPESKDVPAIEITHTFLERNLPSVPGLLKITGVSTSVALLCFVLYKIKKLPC

Cn1ncc2cc(-c3cnc(N)c(Cl)c3N3CCC4(CCNC4=O)CC3)ccc21 [Compound 109, 8-(2-Amino-3-chloro-5-(1-methyl-1H-indazol-5-yl)pyridin-4-yl)-2,8-diazaspiro[4.5]decan-1-one]
% effect (CDK7/CYCLINH/MAT1): 5%
Solubility Kinetic [1]: 137 µM (≈ 56.3 µg/mL)
% effect (MRCKBETA): -35%
% effect (WNK2): 27%
% effect (PAK2): -10%
% effect (ABL): -15%
% effect (ALK): 4%
% effect (P70S6K): -1%
% effect (cMET (D1246H)): -8%
% effect (IRAK1): 15%
% effect (BLK): 11%
inhibition at 10 µM (CCR2 (h)): -9%
% effect (ABL(Y253F)): 1%
% effect (CAMKIIGAMMA): 8%
inhibition at 10 µM (sst4 (h)): 9%
% effect (JNK3): -5%
inhibition at 10 µM (GR (h)): -1%
Vd (In vivo mouse PK): 0.63 L/kg
clearance (In vivo mouse PK; Cl, 0.2 mg/kg iv): 10.2 mL/min/kg
% effect (GSK3ALPHA): -18%
% effect (ARK5): 10%
% effect (PASK): -20%
inhibition at 10 µM (NK1 (h)): 25%
% effect (CAMKI): -3%
% effect (CHK2): -2%
% effect (JAK2): -20%
% effect (FMS): -23%
% effect (TAO1): 6%
% effect (RSE): 1%
% effect (SGK2): -3%
% effect (FES): -6%
% effect (SAPK3): 4%
% effect (ABL (M351T)): -11%
% effect (IKKALPHA): -17%
% Inhibition of Control Specific Binding (NMDA): 0%
% effect (PRKX): -9%
% effect (CAMKIIBETA): 19%
% effect (ULK3): -21%
% effect (CAMKIDELTA): 8%
% effect (CAMKIV): 14%
% effect (MST1): 4%
% effect (IR): -5%
% Inhibition of Control Specific Binding [2]: -3%
inhibition at 10 µM (MAO-A): 8%
